In patent publication US11524966B1 (Valo Early Discovery, Inc., priority 2017, dated 2022):

Each molecule was assayed against T1, USP25 (USP25-His6, Boston Biochem E-546) (Homo sapiens, UniProt Q9UHP3) (assay: Ubiquitin-Rhodamine 110 Assay for USP25 Activity, Example A-2). Settings: Ubiquitin-Rhodamine 110 assay, Example A-2; read-out: USP25 A-2 IC50 range.
T1 construct: His6; purchased Boston Biochem E-546
T1 sequence (Q9UHP3 1-1055): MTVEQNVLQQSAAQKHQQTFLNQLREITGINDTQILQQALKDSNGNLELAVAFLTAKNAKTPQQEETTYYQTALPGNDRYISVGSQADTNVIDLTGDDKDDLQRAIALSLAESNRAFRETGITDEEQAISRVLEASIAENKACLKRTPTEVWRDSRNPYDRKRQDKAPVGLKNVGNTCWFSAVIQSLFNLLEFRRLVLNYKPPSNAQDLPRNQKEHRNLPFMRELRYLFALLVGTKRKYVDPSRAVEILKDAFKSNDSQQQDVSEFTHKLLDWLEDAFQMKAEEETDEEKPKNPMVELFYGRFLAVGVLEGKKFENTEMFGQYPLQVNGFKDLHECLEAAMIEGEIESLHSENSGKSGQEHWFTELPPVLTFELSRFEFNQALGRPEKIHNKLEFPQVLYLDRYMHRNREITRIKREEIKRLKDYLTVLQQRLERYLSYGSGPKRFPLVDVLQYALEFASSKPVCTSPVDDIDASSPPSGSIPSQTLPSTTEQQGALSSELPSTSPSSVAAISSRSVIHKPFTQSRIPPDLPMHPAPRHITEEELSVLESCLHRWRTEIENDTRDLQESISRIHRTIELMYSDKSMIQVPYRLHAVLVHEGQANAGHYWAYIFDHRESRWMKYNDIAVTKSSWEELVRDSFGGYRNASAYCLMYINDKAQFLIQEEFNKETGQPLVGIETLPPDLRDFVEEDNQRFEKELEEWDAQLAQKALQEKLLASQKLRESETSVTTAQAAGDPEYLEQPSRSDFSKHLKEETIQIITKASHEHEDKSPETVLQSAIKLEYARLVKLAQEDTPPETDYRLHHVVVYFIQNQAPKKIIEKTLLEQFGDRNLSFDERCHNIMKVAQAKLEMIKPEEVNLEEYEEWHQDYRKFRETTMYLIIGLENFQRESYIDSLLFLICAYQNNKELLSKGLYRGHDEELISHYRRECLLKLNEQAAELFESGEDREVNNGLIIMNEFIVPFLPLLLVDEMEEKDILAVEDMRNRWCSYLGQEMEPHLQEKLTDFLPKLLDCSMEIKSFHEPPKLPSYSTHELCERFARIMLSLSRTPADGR
Assay type: biochemical
Procedure, shortened: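 Inhibition is quantified as IC50 by 4-parameter fit of fluorescence (485/535 nm) from Ub-Rh110 hydrolysis. Enzyme USP25-His6 at 75 pM with 30 min compound preincubation, then 25 nM substrate for 45 min at room temperature in pH 8.0 Tris buffer containing BME.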

First: Cc1cc(C)c2c(N)c(C(=O)N[C@H]3COc4cc(N5CC6CNCC(C5)O6)cc(F)c4C3)sc2n1 [Example 10-13, N-((3R)-7-(9-oxa-3,7-diazabicyclo[3.3.1]nonan-3-yl)-5-fluorochroman-3-yl)-3-amino-4,6-dimethylthieno[2,3-b]pyridine-2-carboxamide]
Second: Cc1ccc2c(N)c(C(=O)N[C@H]3COc4cc(N5CC6CNCC(C5)O6)cc(F)c4C3)sc2n1 [Example 10-6, N-((3R)-7-(9-oxa-3,7-diazabicyclo[3.3.1]nonan-3-yl)-5-fluorochroman-3-yl)-3-amino-6-methylthieno[2,3-b]pyridine-2-carboxamide]
The IC50 of the first is lower: 1 to 50 nM for the first, 50 to 200 nM for the second.

Work on Cc1ccc2c(N)c(C(=O)N[C@@H]3COc4cc(N5CCNCC5)ccc4[C@@H]3C)sc2n1 (single isomer, unassigned) [Example 11-18] yielded an IC50 greater than 2000 nM.

Same assay, conditions: Ubiquitin-Rhodamine 110 assay, format Example A-2; read-out: USP25 A-2 IC50 range

First: Cc1ccc2c(N)c(C(=O)N[C@H]3CCc4cc(N5CC6CCC(C5)N6)c(F)cc4C3)sc2n1 (single isomer, unassigned) [Example 21-4]
Second: Cc1ccc2c(N)c(C(=O)N[C@H]3CCc4c(ccc(N5CC6CCC(C5)N6)c4F)C3)sc2n1 (single isomer, unassigned) [Example 21-2]
The IC50 of the first is higher: greater than 2000 nM for the first, 200 to 2000 nM for the second.

Cc1ccc2c(N)c(C(=O)N[C@H]3CCc4cc(N5CCNCC5)c(F)cc4C3)sc2n1 (single isomer, unassigned) [Example 21-8] and Cc1ccc2c(N)c(C(=O)N[C@H]3CCc4cc(N5CCNCC5)cnc4C3)sc2n1 (single isomer, unassigned) [Example 15-2] cannot be ordered by IC50: greater than 2000 nM for the first, greater than 2000 nM for the second.

Cc1ccc2c(N)c(C(=O)N[C@H]3COc4nc(N5CCNCC5)ccc4C3)sc2n1 [Example 19, (R)-3-Amino-6-methyl-N-(7-(piperazin-1-yl)-3,4-dihydro-2H-pyrano[2,3-b]pyridin-3-yl)thieno[2,3-b]pyridine-2-carboxamide] and Cc1ccc2c(N)c(C(=O)N[C@H]3COc4nc(N5CCNCC5)c(F)cc4C3)sc2n1 [Example 20, (R)-3-Amino-N-(6-fluoro-7-(piperazin-1-yl)-3,4-dihydro-2H-pyrano[2,3-b]pyridin-3-yl)-6-methylthieno[2,3-b]pyridine-2-carboxamide] fall in the same range of IC50: 200 to 2000 nM for the first, 200 to 2000 nM for the second.

CO[C@H]1CN(c2ccc3c(n2)CC[C@@H](NC(=O)c2sc4nc(C)ccc4c2N)C3)C[C@@H]1N [Example 23-5, 3-amino-N-[(6R)-2-[(3S,4S)-3-amino-4-methoxypyrrolidin-1-yl]-5,6,7,8-tetrahydroquinolin-6-yl]-6-methylthieno[2,3-b]pyridine-2-carboxamide] showed an IC50 greater than 2000 nM.
